From US20060008541A1, “Sodium channel agonist” (BIZMEDIC CO., LTD., priority 2004, published 2006)
Values joined by “and” are separate entries in the source; they are usually repeats but may differ in a detail not shown here. Equal entries are not always repeated. “Also recorded” adds a separate entry of the source.

Assays:
cardiac INa = cardiac INa (Homo sapiens, UniProt Q14524); conditions: cited from earlier work
L-type calcium current = L-type calcium current (Homo sapiens, UniProt Q13936); conditions: cited from earlier work
L-type calcium current, sequence (Q13936 whole entry): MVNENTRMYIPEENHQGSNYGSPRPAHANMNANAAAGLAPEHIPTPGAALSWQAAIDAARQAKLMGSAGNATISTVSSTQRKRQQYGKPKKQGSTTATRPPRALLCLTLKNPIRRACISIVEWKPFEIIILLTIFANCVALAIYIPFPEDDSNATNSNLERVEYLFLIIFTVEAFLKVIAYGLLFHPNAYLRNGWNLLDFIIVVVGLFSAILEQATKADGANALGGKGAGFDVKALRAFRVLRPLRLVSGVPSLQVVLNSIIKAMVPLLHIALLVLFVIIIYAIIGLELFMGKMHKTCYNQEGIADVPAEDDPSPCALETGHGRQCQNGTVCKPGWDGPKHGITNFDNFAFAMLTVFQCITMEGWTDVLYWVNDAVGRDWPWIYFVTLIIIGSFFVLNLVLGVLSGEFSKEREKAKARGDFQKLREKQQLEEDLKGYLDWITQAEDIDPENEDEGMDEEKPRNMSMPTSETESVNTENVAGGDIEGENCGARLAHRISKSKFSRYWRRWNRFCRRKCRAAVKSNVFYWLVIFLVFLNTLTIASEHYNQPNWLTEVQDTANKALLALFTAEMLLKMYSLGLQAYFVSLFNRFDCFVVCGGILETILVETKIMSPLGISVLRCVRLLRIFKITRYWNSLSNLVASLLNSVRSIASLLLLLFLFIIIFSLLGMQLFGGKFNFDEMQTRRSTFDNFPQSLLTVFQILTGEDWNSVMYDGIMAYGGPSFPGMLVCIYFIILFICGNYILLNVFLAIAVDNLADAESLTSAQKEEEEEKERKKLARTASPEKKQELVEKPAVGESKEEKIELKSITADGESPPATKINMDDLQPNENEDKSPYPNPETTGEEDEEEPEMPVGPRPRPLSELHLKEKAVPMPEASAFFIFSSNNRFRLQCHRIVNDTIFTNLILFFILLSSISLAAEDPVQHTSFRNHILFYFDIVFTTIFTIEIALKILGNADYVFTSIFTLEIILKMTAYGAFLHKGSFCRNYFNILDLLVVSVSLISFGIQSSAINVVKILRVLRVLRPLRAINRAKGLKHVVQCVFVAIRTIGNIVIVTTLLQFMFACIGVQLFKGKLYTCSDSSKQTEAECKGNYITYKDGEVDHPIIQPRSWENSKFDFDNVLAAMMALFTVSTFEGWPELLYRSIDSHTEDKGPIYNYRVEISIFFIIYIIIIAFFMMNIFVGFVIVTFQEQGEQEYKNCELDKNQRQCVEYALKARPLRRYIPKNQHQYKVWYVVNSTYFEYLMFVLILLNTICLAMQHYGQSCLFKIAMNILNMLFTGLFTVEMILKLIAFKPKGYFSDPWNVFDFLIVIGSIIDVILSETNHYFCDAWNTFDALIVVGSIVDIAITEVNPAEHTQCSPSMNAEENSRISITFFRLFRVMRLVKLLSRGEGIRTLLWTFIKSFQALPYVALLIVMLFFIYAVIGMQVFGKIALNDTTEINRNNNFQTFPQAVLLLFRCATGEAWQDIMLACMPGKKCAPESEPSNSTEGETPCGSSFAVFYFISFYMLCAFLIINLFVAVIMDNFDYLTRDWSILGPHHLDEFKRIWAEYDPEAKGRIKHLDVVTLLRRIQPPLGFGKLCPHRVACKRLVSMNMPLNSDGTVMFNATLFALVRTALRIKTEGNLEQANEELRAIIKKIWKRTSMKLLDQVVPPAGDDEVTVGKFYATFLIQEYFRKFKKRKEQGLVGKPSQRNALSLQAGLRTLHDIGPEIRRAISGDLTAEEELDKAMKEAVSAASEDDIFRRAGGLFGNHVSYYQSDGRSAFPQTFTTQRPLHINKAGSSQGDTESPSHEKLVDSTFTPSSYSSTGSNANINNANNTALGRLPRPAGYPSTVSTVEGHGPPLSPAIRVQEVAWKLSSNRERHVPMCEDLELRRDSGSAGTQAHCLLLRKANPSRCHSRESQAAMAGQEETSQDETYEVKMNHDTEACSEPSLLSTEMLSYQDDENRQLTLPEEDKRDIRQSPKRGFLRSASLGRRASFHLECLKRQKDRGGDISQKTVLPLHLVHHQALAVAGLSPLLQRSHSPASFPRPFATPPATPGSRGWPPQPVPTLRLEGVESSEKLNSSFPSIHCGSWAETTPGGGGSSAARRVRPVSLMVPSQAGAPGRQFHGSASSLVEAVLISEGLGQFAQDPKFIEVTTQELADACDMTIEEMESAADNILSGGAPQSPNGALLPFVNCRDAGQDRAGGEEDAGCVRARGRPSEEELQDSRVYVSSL
L-type calcium current, sequence (Q08289 whole entry partner): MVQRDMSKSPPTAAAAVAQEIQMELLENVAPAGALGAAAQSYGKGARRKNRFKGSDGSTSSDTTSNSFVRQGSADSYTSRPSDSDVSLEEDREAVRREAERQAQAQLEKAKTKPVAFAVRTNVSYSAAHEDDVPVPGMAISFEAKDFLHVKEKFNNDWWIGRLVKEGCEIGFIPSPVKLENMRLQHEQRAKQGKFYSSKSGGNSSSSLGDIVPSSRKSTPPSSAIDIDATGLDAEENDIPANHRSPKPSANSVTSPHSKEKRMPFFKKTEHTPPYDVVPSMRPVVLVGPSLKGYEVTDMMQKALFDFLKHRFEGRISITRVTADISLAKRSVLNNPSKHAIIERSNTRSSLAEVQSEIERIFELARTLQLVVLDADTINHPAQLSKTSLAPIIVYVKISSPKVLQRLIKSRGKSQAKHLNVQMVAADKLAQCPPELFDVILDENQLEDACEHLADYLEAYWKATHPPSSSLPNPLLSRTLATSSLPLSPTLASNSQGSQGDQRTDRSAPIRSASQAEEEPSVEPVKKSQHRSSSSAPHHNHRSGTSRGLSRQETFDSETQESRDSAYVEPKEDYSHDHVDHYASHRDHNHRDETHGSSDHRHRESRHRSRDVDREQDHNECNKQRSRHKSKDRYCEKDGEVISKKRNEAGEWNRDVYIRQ
L-type calcium current, sequence (P54289 25-956 partner limits assumed): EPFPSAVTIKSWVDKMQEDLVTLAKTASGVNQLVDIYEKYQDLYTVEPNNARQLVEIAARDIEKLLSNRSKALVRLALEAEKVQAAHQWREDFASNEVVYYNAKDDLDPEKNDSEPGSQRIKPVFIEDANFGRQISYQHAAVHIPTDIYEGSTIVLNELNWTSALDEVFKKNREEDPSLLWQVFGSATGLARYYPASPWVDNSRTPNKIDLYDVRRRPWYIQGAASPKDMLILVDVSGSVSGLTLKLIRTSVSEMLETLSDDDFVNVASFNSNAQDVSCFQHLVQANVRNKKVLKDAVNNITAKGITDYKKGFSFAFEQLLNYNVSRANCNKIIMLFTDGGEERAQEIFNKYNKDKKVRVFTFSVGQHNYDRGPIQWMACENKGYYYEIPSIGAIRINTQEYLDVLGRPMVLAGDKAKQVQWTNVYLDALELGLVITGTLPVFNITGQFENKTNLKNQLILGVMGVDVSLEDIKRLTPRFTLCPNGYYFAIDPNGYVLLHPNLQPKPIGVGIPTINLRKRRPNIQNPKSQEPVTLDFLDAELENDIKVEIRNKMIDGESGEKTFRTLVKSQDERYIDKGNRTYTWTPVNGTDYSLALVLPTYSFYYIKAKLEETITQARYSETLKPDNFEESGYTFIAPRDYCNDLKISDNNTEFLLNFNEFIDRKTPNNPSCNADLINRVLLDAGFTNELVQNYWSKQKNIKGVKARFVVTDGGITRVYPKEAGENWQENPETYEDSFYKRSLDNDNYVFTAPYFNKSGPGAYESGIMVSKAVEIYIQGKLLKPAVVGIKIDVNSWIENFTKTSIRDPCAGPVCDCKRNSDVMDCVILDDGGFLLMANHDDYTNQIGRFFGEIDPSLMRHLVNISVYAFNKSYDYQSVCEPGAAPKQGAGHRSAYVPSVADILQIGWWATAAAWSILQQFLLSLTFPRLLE
L-type calcium current, sequence (P54289 957-1103 partner limits assumed): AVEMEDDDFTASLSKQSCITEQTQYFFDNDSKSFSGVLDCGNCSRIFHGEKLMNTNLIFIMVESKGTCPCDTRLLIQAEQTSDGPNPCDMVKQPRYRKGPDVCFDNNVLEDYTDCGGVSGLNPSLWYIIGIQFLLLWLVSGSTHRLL

[1] = test system: inward rectifier K+ current; conditions: cited from earlier work
rat ventricular myocytes = experiment: Action potentials in isolated rat ventricular myocytes, whole-cell current clamp
Description: Ventricular myocytes were isolated from the hearts of 3-week or 6 to 7- week-old Sprague-Dawley rats of either sex. Rats were anaesthetized with pentobarbitone sodium (i.p. 200 mg kg^−1). Isolated hearts were mounted on a Langendorff perfusion apparatus, washed at 37° C. for 5 min with a modified Tyrode solution containing (mM): 143 NaCl, 5.4 KCl, 5 HEPES, 0.5 MgCl2, 0.5 NaH2PO4, 1.8 CaCl2, 10 glucose, adjusted pH to 7.4 with NaOH, and then perfused with Ca^2+-free Tyrode solution for 5 min. After the hearts had stopped beating, Ca^2+-free Tyrode solution containing collagenase (0.5 mg ml^−1, Type II, Worthington) was perfused for 30 min. Finally, this enzyme containing solution was washed out for 5 min with a high K^+, low Cl^−KB solution containing (in mM): 70 K-glutamate, 55 KCl, 10 HEPES, 3 MgCl2, 20 taurine, 20 KH2PO4, 0.5 K-EGTA adjusted pH to 7.3 with KOH. A portion of the left ventricle was then dissected out and gently stirred with a forceps in KB solution. The isolated ventricular myocytes were kept in KB solution at 5° C. before use.
Patch pipettes (1˜2 MΩ when filled with experimental solutions) were pulled from borosilicate glass capillaries (Harvard Apparatus Ltd, UK). Conventional whole-cell patch clamp technique was used to record membrane current or voltage from single ventricular myocytes. In current-clamp mode, action potentials were evoked by a brief supra-threshold current pulse. In voltage clamp mode, access resistance was monitored throughout the experiment, and data were accepted only when the access resistance was kept below 6 MΩ. Filtered signals (10 KHz) from a patch clamp amplifier (Biologic RK 300, France), were fed into AD/DA converter (PCI-MIO-16E-4, National Instrument, USA), digitized at 20 KHz, and stored in PC for later analysis. The flow rate of the perfusion solution was 0.5˜1 ml min^−1. All electrophysiological experiments were performed at room temperature (23˜25° C.). The statistical results in the text and in figures were presented as means ±S.E.M. (n=number of cells studied). Statistical significance was accepted for p value <0.05.
APs were evoked by applying 50-70 pA depolarising current pulses (5 ms in duration) every 500 ms through a patch pipette in current clamp mode with a whole-cell configuration. The effects of dmLSB on APD were quantified in terms of APD90; defined as the APD measured at the voltage at which repolarization process is 90% complete. Time-profile of the change in APD90 values averaging from five sequential APs selected every 12 seconds was plotted in FIG. 2A as a function of whole-cell recording time.
Experimental methods for electrophysiology (recording currents and action potentials) are the same as described above for dmLSB.

[2] = test system: inward rectifier K+ currents and delayed rectifier K+ currents; experiment: K+ currents in rat ventricular myocytes, voltage clamp with K+-rich pipette solution; format: cell-based; conditions: 10 μM dmLSB; I950ms
Description: (§1) Statistical significance was accepted for p value <0.05.
The K-rich pipette solution containing (in mM): 90 K-aspartate, 30 KCl, 2 MgCl2, 5 Mg-ATP, 10 HEPES, 5 K-EGTA, 5 diTris-creatine phosphate, 2.5 Na2-creatine phosphate was used. Cs-aspartate internal solution contained (in mM): 90 Cs-aspartate, 20 CsCl, 2 MgCl2, 5 Mg-ATP, 10 HEPES, 2.5 Na2-creatine phosphate, 10 tetraethyl-ammonium chloride (TEA-Cl), 5 Cs-EGTA with pH adjusted to 7.3 using CsOH. When Cs-aspartate internal solution was used in combination with normal Tyrode (NT) bathing solution, the holding current level was inward at −80 mV, probably due to K^+ influx via inward rectifier K channels. To prevent this inward holding current, KCl in the NT solution was substituted with equimolar CsCl.
To elucidate the mechanism underlying APD change by dmLSB, voltage-clamp experiments were performed and the effects of dmLSB on the ionic currents in rat ventricular myocytes were investigated. Membrane currents were recorded in a voltage clamp mode using a patch pipette containing a K^+-rich (140 mM) internal solution. […]
However, initial amplitudes measured at 20 ms (I20ms) in the presence of dmLSB differed from those measured under control conditions, and the I-V relationship deviated inwardly by dmLSB. […]

[3] = target: L-type Ca2+ current (ICa,L) (Rattus norvegicus, UniProt P22002); format: cell-based; conditions: 10 μM dmLSB
Na+ current (INa) = Na+ current (INa) (Rattus norvegicus, UniProt P15389); experiment: Na+ current (INa) in rat ventricular myocytes, whole-cell voltage clamp; format: cell-based; design: endogenous in cells; host or cells: freshly isolated rat (Sprague-Dawley) left ventricular myocytes
Excerpt: as §1
As sodium current (INa) in ventricular myocytes is so fast and large that membrane potential is prone to escape from the command voltage, it is necessary to reduce INa for a quantitative analysis. For this purpose, small ventricular myocytes isolated from young (3-weeks-old) rats were used, and currents recorded in a modified Cs^+-based low Na^+ bath solution (Yuill et al., 2000) which contained (in mM): 130 CsCl, 10 NaCl, 2.5 MgCl2, 0.5 CaCl2, 20 HEPES, 11 glucose, in experiments shown in FIG. 5. It was reported that the kinetics of INa in the standard solution (145 mM Na^+) and in Cs-based solution (10 mM Na^+) were similar.
To examine the effect of dmLSB on inward currents, a Cs^+-rich pipette solution containing 10 mM EGTA was used. To distinguish L-type Ca^2+ currents (ICa,L) from Na^+ currents (INa), a two-step pulse protocol was used (inset of FIG. 4A). […] Although the peak amplitude of INa was unaffected by dmLSB, significant broadening of inactivation phase was observed.
To avoid the problem of voltage escape and to investigate the effects of dmLSB on INa in a quantitative manner, INa was recorded in low external [Na^+] (10 mM). It is well known that the steady-state inactivation shifted spontaneously during whole-cell mode recording. To activate INa from the potential at which inactivation is fully recovered, depolarising test pulses were applied following a 500 ms pre-pulse to −120 mV. To eliminate the contamination of ICa,L and to isolate pure INa, current response to the same test pulse from holding potential (Vh) of −40 mV, which was regarded as ICa,L, was subtracted from that from Vh of −120 mV.
Pre-pulses of 500 ms duration at variable potentials (from −150 to −15 mV in 15 mV steps) preceded a 50 ms test pulse to −20 mV. The superimposed current responses to the test pulse (−20 mV) are shown in FIG. 6A (left, control; right, 20 μM dmLSB). […] The peak amplitudes of INa are plotted against pre-pulse voltages in FIG. 6B. […] The voltages for half inactivation were −75.7±0.61 mV (n=28) in control and −77.8±1.05 mV (n=32) in the presence of dmLSB (t-test, p>0.05).
Since dmLSB specifically affected the slow phase of inactivation, the difference current represented the slow inactivating INa (ISlow) induced by dmLSB. To quantify the magnitude of the effect of dmLSB on INa, the relative amplitude of ISlow to the peak INa was plotted.
Since dmLSB is lipophilic, it is possible that it permeates the plasma membrane and binds to intracellular receptors or to Na channel protein itself. It is not clear whether its effects were mediated via a cell surface binding site, an intracellular site, or both. To test this possibility, a ventricular myocyte was perfused intracellularly with the patch pipette solution containing 20 μM dmLSB, and INa was monitored while patch pipette solution diffused-in. Meanwhile, the series resistance (RS) was kept below 7 MΩ. As soon as the whole-cell patch was established, INa was recorded at a test potential of −20 mV, and this current trace was subtracted from subsequent INa records. The amplitudes of the subtracted currents were plotted as a function of whole-cell recording time (WCR time; FIG. 8A). […] No change in the inactivation kinetics of INa was observed until dmLSB was applied externally. When 5 μM dmLSB was bath-applied at ca 13 min of WCR time to the same cell, ISlow appeared, indicative of the dmLSB effect.

[4] = mean value, during dmLSB superfusion, n=7

For `N#Cc1cc2c(OCC(O)COC3CN(C(c4ccccc4)c4ccccc4)C3)cccc2[nH]1` (stereo not shown) [BDF 9148], the “persistent INa (literature)” value (cardiac INa) is given as “induce a persistent INa”, the “calcium current (literature)” value (L-type calcium current) is given as “inhibit” and the “inward rectifier K+ current (literature)” value [1] is given as “inhibit”.
For `N#Cc1cc2c(OCC(O)CN3CCN(C(c4ccccc4)c4ccccc4)CC3)cccc2[nH]1` (stereo not shown) [DPI 201-106], the “persistent INa (literature)” value (cardiac INa) is given as “induce a persistent INa”, the “calcium current (literature)” value (L-type calcium current) is given as “inhibit” and the “inward rectifier K+ current (literature)” value [1] is given as “inhibit”.
In the case of `Cc1oc2ccccc2c1Cc1cc(I)c(OCC(=O)O)c(I)c1` [KB130015, 2-Methyl-3-(3,5-diiodo-4-carboxymethoxybenzyl)benzofuran], the “INa inactivation (literature)” value (cardiac INa) is listed as “slowed INa inactivation”, the “persistent INa (literature)” value (cardiac INa) is listed as “without developing persistent INa” and the “calcium current (literature)” value (L-type calcium current) is listed as “reduces ICa”.
In the case of `O=C(/C=C/c1ccc(O)c2c1C(C(=O)OC(Cc1ccc(O)c(O)c1)C(=O)O)C(c1ccc(O)c(O)c1)O2)OC(Cc1ccc(O)c(O)c1)C(=O)O` (stereo not shown) [LSB, lithospermate B, reference compound], the electrophysiological effect (rat ventricular myocytes) is reported as “negligible electrophysiological effect; also recorded: no effect on cardiac action potential”.
For `COC(=O)[C@@H](Cc1ccc(O)c(O)c1)OC(=O)/C=C/c1ccc(O)c2c1[C@H](C(=O)O[C@H](Cc1ccc(O)c(O)c1)C(=O)OC)[C@@H](c1ccc(O)c(O)c1)O2` [dmLSB, dimethyl lithospermate B], the “Action potential duration (APD90)” value (rat ventricular myocytes; 20 μM dmLSB, control 58.8±12.1 ms, n=7) was 202.3 ± 9.5 ms, the “early after-depolarisation (EAD)” value (rat ventricular myocytes; during prolonged plateau phase of AP) was “no early after-depolarisation was observed; also recorded: not associated with the generation of EAD; also recorded: no EAD observed” and the “effect on AP duration (APD)” value (rat ventricular myocytes; isolated rat ventricular myocytes) was “increases the APD”. For the same molecule, the overshoot potential (rat ventricular myocytes; [4]) was 53.53±8.8 mV, the “resting membrane potential (RMP)” value (rat ventricular myocytes; [4]) was −68.46±2.6 mV and the “concentration at which APD prolongation was maximal” value (rat ventricular myocytes; tested up to 100 μM) was 20 µM. For the same molecule, the “effect on K+ currents” value [2] was “no noticeable effect; also recorded: no significant difference”, the “effect on Ca2+ currents (ICa,L)” value [3] was “no noticeable effect; also recorded: hardly affected; also recorded: No significant difference” and the INa inactivation kinetics (Na+ current (INa)) was “slowed the inactivation kinetics”. For the same molecule, the “steady-state (s-s) inactivation of INa” value (Na+ current (INa)) was “not affected; also recorded: no effect on the steady-state inactivation”, the “peak amplitude of INa” value (Na+ current (INa); 10 μM dmLSB) was “unaffected; also recorded: decreased slightly” and the “time within which INa inactivation was completed” value (Na+ current (INa); 10 μM dmLSB, −20 mV) was at most 50 ms. For the same molecule, the “effect of intracellular application on INa” value (Na+ current (INa); 20 μM dmLSB in pipette solution, n=4) was “essentially no effect on INa”, the “V1/2 of steady-state inactivation fit” value (Na+ current (INa); 20 μM dmLSB, n=32, control −75.7, no unit) was −77.8 and the “voltage for half inactivation” value (Na+ current (INa); 20 μM dmLSB, n=32, control −75.7±0.61 mV) was −77.8±1.05 mV. For the same molecule, the “k of steady-state inactivation fit” value (Na+ current (INa); 20 μM dmLSB, control 10.20) was 9.99, the “amplitude of the slow component (AS), of the peak INa” value (Na+ current (INa); at −20 mV, 10 μM dmLSB, bi-exponential fit, n=4) was 22.1±1.02% and the “time to maximal effect at each concentration” value (Na+ current (INa); bath application) was “ca. 150 seconds”. The Hill coefficient (Na+ current (INa); dose-response of ISlow relative to peak INa) was 1.02, the “mean voltage for half-maximal activation” value (Na+ current (INa); in the presence of 10 μM dmLSB, low [Na+] 10 mM, n=4, control −42.35±1.1) was −37.28±0.8 and the EC50 (Na+ current (INa); test pulse −20 mV, Hill fit, read-out: EC50, relative amplitude of slow component (ISlow) to peak INa) was 21.1 µM and 20 µM. The “shift of voltage-dependence of activation (activation curve)” value (Na+ current (INa); to the depolarised (right) direction, 10 μM dmLSB) was 5 mV and the “reversibility of effect on INa” value (Na+ current (INa); wash-out) was “reversible; also recorded: completely reversed after the wash-out”.
For `CC1(C)C(C(=O)OC(C#N)c2cccc(Oc3ccccc3)c2)C1(C)C` (stereo not shown) [fenpropathrin], the “activation and inactivation curves of INa (literature)” value (cardiac INa) is listed as “leftward shifts”.
